# Where a name gives a salt, the structure may show the parent alone.
# How the values were obtained:
# sciatic nerve = assay: Local anesthetic effect of nerve block (sciatic nerve block model, hot plate test); format: in vivo; conditions: rat, single dose 5 mL/Kg through right sciatic nerve, example compounds 6 mg/mL (8.6-10.1 mmol/L), hot plate 50°C; for Duration: levobupivacaine hydrochloride 2 mg/mL, MPE at least 50%
# Protocol: Three groups of fully acclimatized rats, one in each group, were given to the example compounds and levobupivacaine hydrochloride positive control, respectively.
# Solution preparation: 2 mg/mL levobupivacaine hydrochloride injection: 2.670 mL of 7.5 mg/mL levobupivacaine hydrochloride injection (batch number: 92S0702) was pipetted by a pipette and added into a 10 mL volumetric flask, 0.9% NaCl solution was added until the concave liquid level was flush with the scale line, and the volumetric flask was turned upside down to mix the solution well to prepare 2 mg/ml levobupivacaine hydrochloride injection. 6 mg/mL (the molar concentration calculated from the molecular weight of the example compound ranged from 8.6 to 10.1 mmol/L) example compound solution: 19.80 mg of example compound was accurately weighed and added with 3.3 mL of 0.9% NaCl solution to prepare 6 mg/mL example compound solution.
# Each rat was administered or control injected at 5 mL/Kg, in a single dose through right sciatic nerve, and thereafter, the rat was placed on a hot plate of a preheated 50±0.1° C. smart hot plate apparatus. The time required for the occurrence of the behavioral phenomena of avoiding thermal stimuli, such as obvious foot lifting and foot licking on the administered side of the rat was recorded, as the hot incubation period. The allowable maximum value of the hot incubation period was controlled at 60 s. If the rat still has no foot licking after 60 s, the hind foot of the rat was lifted manually to avoid tissue injury or hyperalgesia, and 60 s was taken as the hot incubation period of the rat. After each measurement, the hot plate was wiped in time to remove possible urine and feces, and was dried for subsequent testing.
# The results of the hot incubation period were expressed with maximum proportionality effect (MPE) and calculated using the following equation:
# [formula] • wherein B represents the basic hot incubation period of rats, P represents the allowable maximum hot incubation period, and C represents the hot incubation period at the detection time point.
# It was specified that the tested time below 50% of the maximum proportionality effect was determined to be invalid, and the test was stopped if two consecutive tests were both below 50% of the maximum proportionality effect.
# [1] = system: rat subcutaneous infiltration models; assay: Subcutaneous infiltration local anesthetic effect (Von Frey stinging stimulus on back skin); format: in vivo; conditions: SD rats
# Protocol: SD rats (half male and half female) with a body weight of 190-210 grams were shaved and sterilized on the back, then a circle with a diameter of about 1.5 cm was drawn on one side of the bare back, and 0.5 mL of a drug-containing solution was subcutaneously injected into the skin in the center: normal saline was used as the solvent, 2 mg/mL levobupivacaine hydrochloride, 9 compounds of the present application were selected, at a concentration of 6 mg/mL (the equivalent molar concentration ranged from 8.6 to 10.1 mmol/L according to the corresponding molecular weights of the example compounds), with 10 rats in each group. Von Frey fiber filaments with 100 g strength were bound to a needle for topical skin stimulation. 1 min after drug injection, response of rats to stinging stimulus was tested. The test sites were six different points of the circle of the administration site, and whether behaviors such as skin contraction and avoidance occurred after stimulus was observed and recorded. Three points in the center of the circle and three points on the periphery of the circle were stimulated separately, and the number of occurrences of skin contraction and avoidance behavior was recorded as N/6. In terms of judgment, if there were 4 or more occurrences of avoidance and skin contraction behaviors, it was considered that the drug was ineffective; if there was a reaction on the periphery (≤3) and no reaction (≥1) in the center, it was considered that the drug was still effective; and if there was a reaction only at the points in the center, it was considered that the drug was ineffective. Each compound was tested with 10 rats.
# Since the local anesthesia time longer than 72 hours may cause irreversible nerve injury, we subsequently halved (3 mg/mL) the dose of the compounds with the duration of action greater than 72 hours and then conducted an activity test to determine whether the local anesthesia effect could be restored in the skin infiltration models.
# [2] = 0.5 mL subcutaneous on back, compounds 6 mg/mL (8.6-10.1 mmol/L)
# [3] = 0.5 mL subcutaneous on back, compounds 6 mg/mL (8.6-10.1 mmol/L), levobupivacaine hydrochloride 2 mg/mL
# [4] = subcutaneous on back, compounds 3 mg/mL (4.4-5.1 mmol/L)
Compound,Duration (sciatic nerve) [h],Onset time (sciatic nerve) [min],"Onset time [1, 2] [min]","Duration [1, 3] [h]","Duration [1, 4] [h]","Onset time [1, 4] [min]"
CCCC[N+]1(CCCCCN2CCCCC2C(=O)Nc2c(C)cccc2C)CCCCC1C(=O)Nc1c(C)cccc1C (stereo not drawn) [Compound 1],24,1,1,55,,
CCCC[N+]1(CCCCCN2CCCCC2C(=O)Nc2ccccc2)CCCCC1C(=O)Nc1c(C)cccc1C (stereo not drawn) [Compound 2],15,1,,,,
CCCC[N+]1(CCCCCN2CCCCC2C(=O)Nc2ccc(F)cc2)CCCCC1C(=O)Nc1c(C)cccc1C (stereo not drawn) [Compound 3],18,1,,,,
CCCC[N+]1(CCCCCN2CCCCC2C(=O)Nc2ccc(C)cc2)CCCCC1C(=O)Nc1c(C)cccc1C (stereo not drawn) [Compound 4],48,1,1,72 to 96,56,1
CCCC[N+]1(CCCCCN2CCCCC2C(=O)NC2CCCCC2)CCCCC1C(=O)Nc1c(C)cccc1C (stereo not drawn) [Compound 6],12,1,,,,
CCCC[N+]1(CCCCN2CCCCC2C(=O)Nc2ccc(F)cc2)CCCCC1C(=O)Nc1c(C)cccc1C (stereo not drawn) [Compound 7],30,1,2,52,,
CCCC[N+]1(CCCCN2CCCCC2C(=O)Nc2ccccc2)CCCCC1C(=O)Nc1c(C)cccc1C (stereo not drawn) [Compound 8],48,1,1,72 to 96,52,1
CCCC[N+]1(CCCCN2CCCCC2C(=O)NC2CCCCC2)CCCCC1C(=O)Nc1c(C)cccc1C (stereo not drawn) [Compound 9],24,1,,,,
CCC[N+]1(CCCCCN2CCCCC2C(=O)NC2CCCCC2)CCCCC1C(=O)Nc1c(C)cccc1C (stereo not drawn) [Compound 11],11,1,,,,
CCC[N+]1(CCCCCN2CCCCC2C(=O)Nc2ccc(C)cc2)CCCCC1C(=O)Nc1c(C)cccc1C (stereo not drawn) [Compound 12],48,1,1,72 to 96,60,1
CCCC[N+]1(CCCCN2CCCCC2C(=O)Nc2c(C)cccc2C)CCC[C@@H]1C(=O)Nc1c(C)cccc1C (stereo partly drawn) [Compound 17],12 to 24,1,,,,
CCCC[N+]1(CCCCN2CCCCC2C(=O)Nc2ccc(C)cc2)CCC[C@@H]1C(=O)Nc1c(C)cccc1C (stereo partly drawn) [Compound 18],20,1,,,,
CCCC[N+]1(CCCCN2CCCCC2C(=O)Nc2ccc(C(F)(F)F)cc2)CCC[C@@H]1C(=O)Nc1c(C)cccc1C (stereo partly drawn) [Compound 20],12 to 24,1,,,,
CCCC[N+]1(CCCCN2CCCCC2C(=O)Nc2ccc(F)cc2)CCC[C@@H]1C(=O)Nc1c(C)cccc1C (stereo partly drawn) [Compound 21],24 to 48,1,1,57,,
CCCC[N+]1(CCCCCN2CCCCC2C(=O)Nc2c(C)cccc2C)CCC[C@@H]1C(=O)Nc1c(C)cccc1C (stereo partly drawn) [Compound 22],24 to 48,1,1,60,,
CCCC[N+]1(CCCCN2CCCCC2C(=O)Nc2c(C)cccc2C)CCC[C@@H]1C(=O)Nc1c(C)cc(C)cc1C (stereo partly drawn) [Compound 27],12 to 24,1,,,,
CCCC[N+]1(CCCCN2CCCCC2C(=O)Nc2ccc(C)cc2)CCC[C@@H]1C(=O)Nc1c(C)cc(C)cc1C (stereo partly drawn) [Compound 28],12 to 24,1,,,,
CCCC[N+]1(CCCCN2CCCCC2C(=O)Nc2ccc(F)cc2)CCC[C@@H]1C(=O)Nc1c(C)cc(C)cc1C (stereo partly drawn) [Compound 29],24 to 48,1,1,50,,
CCCC[N+]1(CCCCCN2CCCCC2C(=O)Nc2ccc(F)cc2)CCC[C@@H]1C(=O)Nc1c(C)cc(C)cc1C (stereo partly drawn) [Compound 32],12 to 24,1,,,,
"CCCCN1CCCC[C@H]1C(=O)Nc1c(C)cccc1C [Levobupivacaine hydrochloride, reference compound]",3,,,4,3,

# Reference: patent publication US20240287021A1, “QUATERNARY AMMONIUM SALT COMPOUND, PREPARATION METHOD THEREFOR AND USE THEREOF” (YICHANG HUMANWELL PHARMACEUTICAL CO., LTD., priority 2021, published 2024)
